According to PubChem BioAssay (NCI):
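Here, GI50 denotes the concentration required for 50% inhibition of growth. Definition used: TGI = concentration required for complete inhibition of growth.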

Assays:
Assay in all cases: growth of human tumour cells (NCI), 384-well format
EKVX NSCLC = tested on: EKVX NSCLC
IGROV1 ovarian = tested on: IGROV1 ovarian
MOLT-4 leukemia = tested on: MOLT-4 leukemia
SK-OV-3 ovarian = tested on: SK-OV-3 ovarian
HOP-62 NSCLC = tested on: HOP-62 NSCLC
HOP-92 NSCLC = tested on: HOP-92 NSCLC
PC-3 prostate = tested on: PC-3 prostate
SNB-19 CNS = tested on: SNB-19 CNS
LOX IMVI melanoma = tested on: LOX IMVI melanoma
A498 renal = tested on: A498 renal
MCF7 breast = tested on: MCF7 breast
SN12C renal = tested on: SN12C renal
786-0 renal = tested on: 786-0 renal
NCI-H23 lung = tested on: NCI-H23 lung
SF-539 CNS = tested on: SF-539 CNS
SNB-75 CNS = tested on: SNB-75 CNS
T-47D breast = tested on: T-47D breast
U251 glioblastoma = tested on: U251 glioblastoma
UACC-62 melanoma = tested on: UACC-62 melanoma
MDA-MB-468 breast = tested on: MDA-MB-468 breast
KM12 colon = tested on: KM12 colon
DU-145 prostate = tested on: DU-145 prostate
NCI-H460 NSCLC = tested on: NCI-H460 NSCLC
UO-31 renal = tested on: UO-31 renal
ACHN renal = tested on: ACHN renal
TK-10 renal = tested on: TK-10 renal
NCI-H322M lung = tested on: NCI-H322M lung
SK-MEL-28 melanoma = tested on: SK-MEL-28 melanoma
NCI-H226 lung = tested on: NCI-H226 lung
UACC-257 melanoma = tested on: UACC-257 melanoma
K-562 leukemia = tested on: K-562 leukemia
SK-MEL-5 melanoma = tested on: SK-MEL-5 melanoma
NCI-H522 lung = tested on: NCI-H522 lung
CCRF-CEM leukemia = tested on: CCRF-CEM leukemia
HS 578T breast = tested on: HS 578T breast
M14 melanoma = tested on: M14 melanoma
SW-620 colon = tested on: SW-620 colon
MDA-MB-435 melanoma = tested on: MDA-MB-435 melanoma
NCI/ADR-RES ovarian = tested on: NCI/ADR-RES ovarian
BT-549 breast = tested on: BT-549 breast
SF-295 CNS = tested on: SF-295 CNS
HL-60(TB) leukemia = tested on: HL-60(TB) leukemia
RXF 393 renal = tested on: RXF 393 renal
MALME-3M melanoma = tested on: MALME-3M melanoma
OVCAR-8 ovarian = tested on: OVCAR-8 ovarian
OVCAR-4 ovarian = tested on: OVCAR-4 ovarian
OVCAR-3 ovarian = tested on: OVCAR-3 ovarian
HCT-15 colon = tested on: HCT-15 colon
RPMI-8226 leukemia = tested on: RPMI-8226 leukemia
HT29 colon = tested on: HT29 colon
HCC-2998 colon = tested on: HCC-2998 colon
COLO 205 colon = tested on: COLO 205 colon
HCT-116 colon = tested on: HCT-116 colon
MDA-MB-231 breast = tested on: MDA-MB-231 breast
SF-268 CNS = tested on: SF-268 CNS
CAKI-1 renal = tested on: CAKI-1 renal
A549 NSCLC = tested on: A549 NSCLC

For `CC1(C)OCCn2c1nc1c(N3CCOCC3)nc(-c3cnc(N)nc3)nc12`, the GI50 (EKVX NSCLC) was 519 nM, the TGI (EKVX NSCLC) was 4100 nM and the GI50 (IGROV1 ovarian) was 158 nM. It also gave a TGI (IGROV1 ovarian) of 659 nM, a GI50 (MOLT-4 leukemia) of 218 nM and a TGI (MOLT-4 leukemia) of 1200 nM. For the same compound, the GI50 (SK-OV-3 ovarian) was 199 nM, the TGI (SK-OV-3 ovarian) was 1200 nM and the GI50 (HOP-62 NSCLC) was 771 nM. For the same compound, the TGI (HOP-62 NSCLC) was > 100000 nM, the GI50 (HOP-92 NSCLC) was 385 nM and the TGI (HOP-92 NSCLC) was 2890 nM. The GI50 (PC-3 prostate) was 306 nM, the TGI (PC-3 prostate) was 6920 nM and the GI50 (SNB-19 CNS) was 5610 nM. For the same compound, the TGI (SNB-19 CNS) was > 100000 nM, the GI50 (LOX IMVI melanoma) was 556 nM and the TGI (LOX IMVI melanoma) was 3440 nM. The GI50 (A498 renal) was 314 nM, the TGI (A498 renal) was 2200 nM and the GI50 (MCF7 breast) was 96.4 nM. The TGI (MCF7 breast) was > 100000 nM, the GI50 (SN12C renal) was 389 nM and the TGI (SN12C renal) was 5490 nM. The GI50 ([…]-0 renal) was 1280 nM, the TGI (786-0 renal) was 9930 nM and the GI50 (NCI-H23 lung) was 446 nM. For the same compound, the TGI (NCI-H23 lung) was > 100000 nM, the GI50 (SF-539 CNS) was 1040 nM and the TGI (SF-539 CNS) was > 100000 nM. For the same compound, the GI50 (SNB-75 CNS) was 232 nM, the TGI (SNB-75 CNS) was 2270 nM and the GI50 (T-47D breast) was 128 nM. For the same compound, the TGI (T-47D breast) was 638 nM, the GI50 (U251 glioblastoma) was 2250 nM and the TGI (U251 glioblastoma) was > 100000 nM. It also gave a GI50 (UACC-62 melanoma) of 556 nM, a TGI (UACC-62 melanoma) of 2980 nM and a GI50 (MDA-MB-468 breast) of 399 nM. The TGI (MDA-MB-468 breast) was 1780 nM, the GI50 (KM12 colon) was 834 nM and the TGI (KM12 colon) was > 100000 nM. The GI50 (DU-145 prostate) was 527 nM, the TGI (DU-145 prostate) was 9150 nM and the GI50 (NCI-H460 NSCLC) was 199 nM. The TGI (NCI-H460 NSCLC) was > 100000 nM, the GI50 (UO-31 renal) was 416 nM and the TGI (UO-31 renal) was > 100000 nM. It also gave a GI50 (ACHN renal) of 467 nM, a TGI (ACHN renal) of 6870 nM and a GI50 (TK-10 renal) of 412 nM. For the same compound, the TGI (TK-10 renal) was 3680 nM, the GI50 (NCI-H322M lung) was 458 nM and the TGI (NCI-H322M lung) was 8700 nM. For the same compound, the GI50 (SK-MEL-28 melanoma) was 418 nM, the TGI (SK-MEL-28 melanoma) was 5420 nM and the GI50 (NCI-H226 lung) was 348 nM. The TGI (NCI-H226 lung) was 2900 nM, the GI50 (UACC-257 melanoma) was 1830 nM and the TGI (UACC-257 melanoma) was > 100000 nM. The GI50 (K-562 leukemia) was 1950 nM, the TGI (K-562 leukemia) was > 100000 nM and the GI50 (SK-MEL-5 melanoma) was 519 nM. For the same compound, the TGI (SK-MEL-5 melanoma) was 2560 nM, the GI50 (NCI-H522 lung) was 368 nM and the TGI (NCI-H522 lung) was > 100000 nM. For the same compound, the GI50 (CCRF-CEM leukemia) was 491 nM, the TGI (CCRF-CEM leukemia) was 7050 nM and the GI50 (HS 578T breast) was 275 nM. For the same compound, the TGI (HS 578T breast) was 1350 nM, the GI50 (M14 melanoma) was 494 nM and the TGI (M14 melanoma) was > 100000 nM. For the same compound, the GI50 (SW-620 colon) was 1600 nM, the TGI (SW-620 colon) was > 100000 nM and the GI50 (MDA-MB-435 melanoma) was 1230 nM. The TGI (MDA-MB-435 melanoma) was > 100000 nM, the GI50 (NCI/ADR-RES ovarian) was 1770 nM and the TGI (NCI/ADR-RES ovarian) was > 100000 nM. It also gave a GI50 (BT-549 breast) of 799 nM, a TGI (BT-549 breast) of 5590 nM and a GI50 (SF-295 CNS) of 316 nM. It also gave a TGI (SF-295 CNS) of 2020 nM, a GI50 (HL-60(TB) leukemia) of 153 nM and a TGI (HL-60(TB) leukemia) of 1910 nM. For the same compound, the GI50 (RXF 393 renal) was 758 nM, the TGI (RXF 393 renal) was 4420 nM and the GI50 (MALME-3M melanoma) was 161 nM. For the same compound, the TGI (MALME-3M melanoma) was 749 nM, the GI50 (OVCAR-8 ovarian) was 742 nM and the TGI (OVCAR-8 ovarian) was > 100000 nM. For the same compound, the GI50 (OVCAR-4 ovarian) was 1040 nM, the TGI (OVCAR-4 ovarian) was 5790 nM and the GI50 (OVCAR-3 ovarian) was 513 nM. The TGI (OVCAR-3 ovarian) was 7280 nM, the GI50 (HCT-15 colon) was 432 nM and the TGI (HCT-15 colon) was > 100000 nM. For the same compound, the GI50 (RPMI-8226 leukemia) was 193 nM, the TGI (RPMI-8226 leukemia) was 667 nM and the GI50 (HT29 colon) was 412 nM. The TGI (HT29 colon) was > 100000 nM, the GI50 (HCC-2998 colon) was 885 nM and the TGI (HCC-2998 colon) was > 100000 nM. The GI50 (COLO 205 colon) was 378 nM, the TGI (COLO 205 colon) was 9220 nM and the GI50 (HCT-116 colon) was 545 nM. The TGI (HCT-116 colon) was > 100000 nM, the GI50 (MDA-MB-231 breast) was 584 nM and the TGI (MDA-MB-231 breast) was > 100000 nM. For the same compound, the GI50 (SF-268 CNS) was 1070 nM, the TGI (SF-268 CNS) was > 100000 nM and the GI50 (CAKI-1 renal) was 279 nM. It also gave a TGI (CAKI-1 renal) of 2740 nM, a GI50 (A549 NSCLC) of 477 nM and a TGI (A549 NSCLC) of 6090 nM.
